The structures appear in SMILES notation. Like-named read-outs stand apart in the source and are kept apart here.

Data set [1] concerns thrombocyte aggregation in the platelet-rich plasma of healthy human test subjects. Briefly: Inhibition of collagen-induced thrombocyte aggregation (method of Born and Cross). It counts as cell-based. Particulars: 10^-4 mol/liter test compound, 10 minutes incubation at 37° C, vs untreated controls; for inhibition at 100 µM: Homo sapiens, 10 min. The source says: 1. The inhibiting action upon thrombocyte aggregation was ascertained by the method of Born and Cross, J. Physiol. 170, 397 (1964), in the platelet-rich plasma of healthy human test subjects, by photometrically ascertaning and registering the rate of decrease of the optical density after addition of commercial collagen containing 1 mgm of collagen fibrils per ml. The angle of inclination of the density curve is a measure of the rate of aggregaton (V max.). The point on the curve which corresponded to the greatest lightpermeability was used for calculation of the optical density (o.D.).
The collagen doses were held to a minimum, but still sufficiently large to result in an irreversible aggregation. Prior to addition of collagen, each plasma sale was incubated for 10 minutes at 37° C with various amounts of the test compound. To provoke maximum aggregation, about 0.01 ml of the collagen solution was added to 1 ml of platelet-rich plasma.
The values in Table I below represent the inhibition of the aggregation rate in % (V max) and the alteration of the optical density (O.D.) in %, compared with the untreated controls, i.e. without addition of the test compound.

A further data set concerns non-anesthetized mice. As to the kind of experiment: Prolonging effect upon the bleeding time (method of Duke). It counts as in vivo. Particulars: 10 mgm/kg per os, vs untreated animals; for change in vivo at 10 mg/kg: Mus musculus, po. The source says: 2. The prolonging effect upon the bleeding time was ascertained by the method of Duke, J. Amer. Med. Assoc. 15, 1185 (1910). 10 mgm/kg of the test compound were given per os to non-anesthetized mice. One or three hours after administration of the test compound, about 0.5 mm was cut off from the tail of each animal, and the exuded blood was carefully soaked up with filter paper at intervals of 30 seconds. The number of drops of blood so obtained was used as a measure for the bleeding time compared to untreated animals (5 animals/test).

The subject of another data set is white mice. Briefly: Acute toxicity after oral administration of a single dose. To be noted: observation time 14 days. It counts as in vivo. As to the method:
(§1) The acute toxicity of the test compounds was determined in white mice (observation time: 14 days) after oral administration of a single dose.

Assay in data set [2]: as above
In kind it is in vivo. To be noted: mouse, in vivo, po, white mice, observation time 14 days. The protocol:
as §1

Setting [3] is: 1 h, 1 hour after administration, read-out: Prolongation of bleeding time in % after 1 hour.
Setting [4] is: 3 h, 3 hours after administration, read-out: Prolongation of bleeding time in % after 3 hours.
Setting [5] is: read-out: Inhibition in % of the aggregation rate (V max).
The mark [6] stands for this setting: read-out: Inhibition in %: alteration of the optical density (O.D.).

With `COC(=O)C[S+]([O-])C(C)c1ccc(-c2ccccc2F)cc1` (single isomer, unassigned) [A, [1-(2'-fluoro-4-biphenylyl)-ethylsulfinyl]-acetic acid methyl ester], in data set [1], the “Inhibition in % of the aggregation rate (V max)” value (from here on “Inhibition in % … (V max)”) came to 32%. Also, in data set [1], the “Inhibition in %: alteration of the optical density (O.D.)” value (from here on “Inhibition in %: alteration”) stood at 45%. The change in vivo at 10 mg/kg came out at 136% with non-anesthetized mice (setting [3]) and 66% in the data set on non-anesthetized mice (setting [4]). For the same compound, the “animals died (at the stated dose)” value with white mice is 1 out of 10.

In the case of `COC(=O)C[S+]([O-])C(C)c1ccc(-c2ccccc2F)cc1` (single isomer, unassigned) [F, dextrorotatory [1-(2'-fluoro-4-biphenylyl)-ethylsulfinyl]-acetic acid methyl ester], the inhibition at 100 µM was 20% in data set [1] (setting [5]) and 19% in data set [1] (setting [6]). The change in vivo at 10 mg/kg with non-anesthetized mice (setting [3]) came to 117%.

In the case of `CC(C)CCOC(=O)CS(=O)(=O)C(C)c1ccc(-c2ccccc2F)cc1` (stereo not drawn) [T, [1-(2'-fluoro-4-biphenylyl)-ethylsulfonyl]-acetic acid isoamyl ester], the inhibition at 100 µM is 76% in data set [1] (setting [5]) and 83% in data set [1] (setting [6]). Besides, the change in vivo at 10 mg/kg in the data set with non-anesthetized mice (setting [3]) is 51%. In addition, the LD50 (as a rule, the dose at which mortality reaches 50%) at 336 h in data set [2] is over 250 mg/kg. Also, the “animals died (at the stated dose)” value in the data set with white mice was 0 out of 5.

Turning to `O=C(O)CS(=O)(=O)Cc1ccc(-c2ccc(Cl)cc2)cc1` [V, [(4'-chloro-4-biphenylyl)-methylsulfonyl]-acetic acid, reference compound], the values for the inhibition at 100 µM in data set [1] (setting [5]) and in data set [1] (setting [6]) were 6% and 11%, respectively. For the same compound, the change in vivo at 10 mg/kg with non-anesthetized mice (setting [3]) was 3%. In addition, the LD50 at 336 h in data set [2] is over 250 mg/kg. For the same compound, in the data set with white mice, the “animals died (at the stated dose)” value is recorded as 3 out of 10.

For the compound `COC(=O)C[S+]([O-])CC(=O)c1ccc(-c2ccccc2)cc1` (stereo not drawn) [L, [2-(4-biphenylyl)-2-oxo-ethylsulfinyl]-acetic acid methyl ester], the inhibition at 100 µM came to 22% in data set [1] (setting [5]) and 47% in data set [1] (setting [6]). Further, the change in vivo at 10 mg/kg with non-anesthetized mice (setting [3]) was found to be 120%; in the data set on non-anesthetized mice (setting [4]), 78%.

Regarding `COC(=O)C[S+]([O-])C(C)c1ccc(-c2ccc(Br)cc2)c(F)c1` (stereo not drawn) [R, [1-(2-fluoro-4'-bromo-4-biphenylyl)-ethylsulfinyl]-acetic acid methyl ester], the inhibition at 100 µM in data set [1] (setting [5]) is 46%; in data set [1] (setting [6]) it was 64%. Moreover, the change in vivo at 10 mg/kg with non-anesthetized mice (setting [3]) was determined as 50%.

Consider `COC(=O)C[S+]([O-])C(C)c1ccc(-c2ccccc2F)cc1` (single isomer, unassigned) [G, levorotatory [1-(2'-fluoro-4-biphenylyl)-ethylsulfinyl]-acetic acid methyl ester], for which, in data set [1], the “Inhibition in % … (V max)” value was 13% and the “Inhibition in %: alteration” value was determined as 27%. The “Prolongation of bleeding time in % after 1 hour” value in the data set with non-anesthetized mice (1 hour after administration) is reported as 129%.

On to `COC(=O)C[S+]([O-])C(C)(C)c1ccc(-c2ccccc2F)cc1` (stereo not drawn) [D], for which the inhibition at 100 µM in data set [1] (setting [5]) is 37%; in data set [1] (setting [6]), 48%. The change in vivo at 10 mg/kg in the data set on non-anesthetized mice (setting [3]) came to 71%. This compound registered a median lethal dose (LD50) at 336 h in data set [2] of over 250 mg/kg. Moreover, in the data set with white mice, the “animals died (at the stated dose)” value is recorded as 2 out of 5.

As for `CC(c1ccc(-c2ccccc2F)cc1)S(C)(=O)=O` (stereo not drawn) [U, [1-(2'-fluoro-4-biphenylyl)-ethyl]-methylsulfone], the inhibition at 100 µM in data set [1] (setting [5]) worked out at 87%; in data set [1] (setting [6]) it was 90%. The change in vivo at 10 mg/kg in the data set with non-anesthetized mice (setting [3]) is 56%. The compound further gave an LD50 at 336 h in data set [2] of over 250 mg/kg. The “animals died (at the stated dose)” value in the data set with white mice is on record as 0 out of 5.

Consider `COC(=O)C[S+]([O-])CCC(C)c1ccc(-c2ccccc2)cc1` (stereo not drawn) [E, [3-(4-biphenylyl)-butyl-(1)-sulfinyl]-acetic acid methyl ester], for which the inhibition at 100 µM in data set [1] (setting [5]) was 92%; in data set [1] (setting [6]) it was 95%. Moreover, the figures for the change in vivo at 10 mg/kg in the data set with non-anesthetized mice (setting [3]) and in the data set on non-anesthetized mice (setting [4]) were 188% and 85%, respectively. Besides, the median lethal dose (LD50) at 336 h in data set [2] was over 250 mg/kg. The “animals died (at the stated dose)” value in the data set on white mice is listed as 0 out of 5.

With `COC(=O)C[S+]([O-])C(C)c1ccc(-c2ccccc2F)c(F)c1` (stereo not drawn) [Q, [1-(2,2'-difluoro-4-biphenylyl)-ethylsulfinyl]-acetic acid methyl ester], the inhibition at 100 µM was 48% in data set [1] (setting [5]) and 54% in data set [1] (setting [6]). The change in vivo at 10 mg/kg in the data set on non-anesthetized mice (setting [3]) was 73%. The compound further came in with an LD50 at 336 h in data set [2] of over 250 mg/kg. For the same compound, in the data set with white mice, the “animals died (at the stated dose)” value is 0 out of 5.

As to `CNC(=O)C[S+]([O-])C(C)c1ccc(-c2ccccc2F)cc1` (stereo not drawn) [H, [1-(2'-fluoro-4-biphenylyl)-ethylsulfinyl]-acetic acid methyl amide], the results for the inhibition at 100 µM in data set [1] (setting [5]) and in data set [1] (setting [6]) were 8% and 13%, respectively. Besides, the change in vivo at 10 mg/kg in the data set with non-anesthetized mice (setting [3]) turned out to be 64%. The 50% lethal dose (LD50) at 336 h in data set [2] is over 250 mg/kg. In the data set with white mice, the “animals died (at the stated dose)” value is listed as 0 out of 5.

Regarding `CC(c1ccc(-c2ccccc2F)cc1)[S+]([O-])CC(=O)N1CC[S+]([O-])CC1` (stereo not drawn) [J, [1-(2'-fluoro-4-biphenylyl)-ethylsulfinyl]-acetic acid-(1-oxido-thiomorpholide)], the results for the inhibition at 100 µM in data set [1] (setting [5]) and in data set [1] (setting [6]) were 16% and 31%, respectively. Moreover, the change in vivo at 10 mg/kg in the data set with non-anesthetized mice (setting [3]) was determined as 149%. In data set [2], the 50% lethal dose (LD50) at 336 h was over 250 mg/kg. Moreover, the “animals died (at the stated dose)” value with white mice is listed as 0 out of 5.

In the case of `O=C(O)C[S+]([O-])CC(=O)c1ccc(-c2ccc(F)cc2)cc1` (stereo not drawn) [N, [2-(4'-fluoro-4-biphenyl)-2-oxo-ethylsulfinyl]acetic acid], the change in vivo at 10 mg/kg in the data set with non-anesthetized mice (setting [3]) is 98%; in the data set with non-anesthetized mice (setting [4]), 37%.

As to `C[S+]([O-])CC(O)c1ccc(-c2ccc(F)cc2)cc1` (stereo not drawn) [K], the inhibition at 100 µM was 59% in data set [1] (setting [5]) and 73% in data set [1] (setting [6]). In addition, the figures for the change in vivo at 10 mg/kg with non-anesthetized mice (setting [3]) and in the data set on non-anesthetized mice (setting [4]) were 68% and 30%, respectively.

As to `COC(=O)C[S+]([O-])C(C)c1ccc(-c2ccccc2[N+](=O)[O-])cc1` (stereo not drawn) [P, [1-(2'-nitro-4-biphenylyl)ethylsulfinyl]-acetic acid methyl ester], the inhibition at 100 µM in data set [1] (setting [5]) amounted to 61%; in data set [1] (setting [6]), 74%. In addition, in the data set with non-anesthetized mice (setting [3]), the change in vivo at 10 mg/kg amounted to 15%. Moreover, the LD50 at 336 h in data set [2] is over 250 mg/kg. Moreover, in the data set with white mice, the “animals died (at the stated dose)” value is 0 out of 5.

On to `COC(=O)C[S+]([O-])C(C)c1ccc(-c2ccccc2F)cc1` (single isomer, unassigned) [B, [1-(2'-fluoro-4-biphenylyl)-ethylsulfinyl]-acetic acid methyl ester], for which, in data set [1], the “Inhibition in % … (V max)” value is 72% and the “Inhibition in %: alteration” value was determined as 81%. In the data set on non-anesthetized mice (1 hour after administration), the “Prolongation of bleeding time in % after 1 hour” value amounted to 142%. The “Prolongation of bleeding time in % after 3 hours” value with non-anesthetized mice (3 hours after administration) was 56%. Also, the “animals died (at the stated dose)” value in the data set on white mice is listed as 2 out of 5.

For `CC(C)CCOC(=O)C[S+]([O-])C(C)c1ccc(-c2ccccc2F)cc1` (stereo not drawn) [C, [1-(2'-fluoro-4-biphenylyl)-ethylsulfinyl]-acetic acid isoamyl ester], the values for the inhibition at 100 µM in data set [1] (setting [5]) and in data set [1] (setting [6]) were 67% and 82%, respectively. The change in vivo at 10 mg/kg came out at 112% with non-anesthetized mice (setting [3]) and 49% in the data set on non-anesthetized mice (setting [4]). The compound further displayed an LD50 at 336 h in data set [2] of over 250 mg/kg. Further, the “animals died (at the stated dose)” value in the data set on white mice is 1 out of 5.

`COC(=O)CS(=O)(=O)C(C)c1ccc(-c2ccccc2F)cc1` (stereo not drawn) [S]: the inhibition at 100 µM in data set [1] (setting [5]) was 45%; in data set [1] (setting [6]), 66%. The change in vivo at 10 mg/kg stood at 83% in the data set on non-anesthetized mice (setting [3]) and 27% with non-anesthetized mice (setting [4]). The compound also yielded an LD50 at 336 h in data set [2] of over 250 mg/kg. In the data set with white mice, the “animals died (at the stated dose)” value is recorded as 0 out of 5.

On to `COC(=O)C[S+]([O-])CC(=O)c1ccc(-c2ccccc2F)cc1` (stereo not drawn) [M, [2-(2'-fluoro-4-biphenylyl)-2-oxo-ethylsulfinyl]-acetic acid methyl ester], for which the inhibition at 100 µM in data set [1] (setting [5]) amounted to 97%; in data set [1] (setting [6]), 95%. In addition, the change in vivo at 10 mg/kg came to 90% with non-anesthetized mice (setting [3]) and 39% in the data set with non-anesthetized mice (setting [4]).

`COC(=O)C[S+]([O-])C(C)c1ccc(-c2cccc(Cl)c2)cc1` (stereo not drawn) [O, [1-(3'-chloro-4-biphenylyl)-ethylsulfinyl]-acetic acid methyl ester]: the inhibition at 100 µM is 66% in data set [1] (setting [5]) and 76% in data set [1] (setting [6]). For the same compound, the change in vivo at 10 mg/kg in the data set with non-anesthetized mice (setting [3]) was 12%. This compound also gave a median lethal dose (LD50) at 336 h in data set [2] of over 250 mg/kg. Also, the “animals died (at the stated dose)” value in the data set on white mice is given as 0 out of 5.

For the origin of these results see patent US3993683A, “Biphenylyl derivatives” (Boehringer Ingelheim GmbH, priority 1974, dated 1976).
